From ChEMBL document CHEMBL1156485, “Distinct structural changes in a G protein-coupled receptor caused by different classes of agonist ligands” (J Biol Chem, 2007)
Activity calls are given as the source filed them. No cut-off for these calls is given here.

Experiments:
[1] = system: Muscarinic acetylcholine receptor M3 (Rattus norvegicus), P08483 [A91C,T549C]; experiment: Stimulation of disulfide bond cross-linking formation in rat M3'(3C)-Xa receptor A91C/T549C mutant expressed in african green monkey COS7 cells by scanning densitometry relative to control; assay type: cell-based; conditions: COS-7
Sequence of Muscarinic acetylcholine receptor M3 (Rattus norvegicus), P08483 [A91C,T549C] (P08483 whole entry A91C/T549C): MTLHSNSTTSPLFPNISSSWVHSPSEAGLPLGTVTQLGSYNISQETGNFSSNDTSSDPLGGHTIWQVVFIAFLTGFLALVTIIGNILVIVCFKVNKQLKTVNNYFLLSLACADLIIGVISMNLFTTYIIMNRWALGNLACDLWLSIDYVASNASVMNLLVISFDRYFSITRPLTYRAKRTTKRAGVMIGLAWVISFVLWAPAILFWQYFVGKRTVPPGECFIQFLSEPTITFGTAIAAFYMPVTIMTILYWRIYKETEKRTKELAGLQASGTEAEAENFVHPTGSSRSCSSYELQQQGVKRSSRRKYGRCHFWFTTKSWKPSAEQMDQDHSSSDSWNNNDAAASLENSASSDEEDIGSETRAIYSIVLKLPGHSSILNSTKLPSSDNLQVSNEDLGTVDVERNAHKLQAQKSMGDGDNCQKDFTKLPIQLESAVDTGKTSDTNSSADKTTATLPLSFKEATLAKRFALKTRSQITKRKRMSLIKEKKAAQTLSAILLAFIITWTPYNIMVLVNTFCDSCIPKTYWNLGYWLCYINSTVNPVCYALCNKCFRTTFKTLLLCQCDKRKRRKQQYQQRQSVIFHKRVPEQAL

[2] = system: Muscarinic acetylcholine receptor M3 (Rattus norvegicus), P08483 [F92C,F550C]; experiment: Stimulation of disulfide bond cross-linking formation in rat M3'(3C)-Xa receptor F92C/F550C mutant expressed in african green monkey COS7 cells by scanning densitometry relative to control; assay type: cell-based; conditions: COS-7
Sequence of Muscarinic acetylcholine receptor M3 (Rattus norvegicus), P08483 [F92C,F550C] (P08483 whole entry F92C/F550C): as the sequence (P08483 whole entry A91C/T549C) above, with C91A, F92C, C549T, F550C counted along it

[3] = system: Muscarinic acetylcholine receptor M3 (Rattus norvegicus), P08483 [A91C,T549C]; experiment: Enhancement of disulfide bond cross-linking formation in rat M3'(3C)-Xa receptor A91C/T549C mutant expressed in african green monkey COS7 cells at 100 nM by Western blotting; assay type: cell-based; conditions: COS-7
[4] = system: Muscarinic acetylcholine receptor M3 (Rattus norvegicus), P08483 [F92C,F550C]; experiment: Enhancement of disulfide bond cross-linking formation in rat M3'(3C)-Xa receptor F92C/F550C mutant expressed in african green monkey COS7 cells at 100 nM by Western blotting; assay type: cell-based; conditions: COS-7
[5] = system: Muscarinic acetylcholine receptor M3 (Rattus norvegicus), P08483 [A91C,T549C]; experiment: Inverse agonist activity at rat M3'(3C)-Xa receptor A91C/T549C mutant expressed in african green monkey COS7 cells assessed as reduction in basal inositol monophosphate accumulation at 10 uM; assay type: functional, cell-based; conditions: COS-7
[6] = system: Muscarinic acetylcholine receptor M3 (Rattus norvegicus), P08483 [F92C,F550C]; experiment: Inverse agonist activity at rat M3'(3C)-Xa receptor F92C/F550C mutant expressed in african green monkey COS7 cells assessed as reduction in basal inositol monophosphate accumulation at 10 uM; assay type: functional, cell-based; conditions: COS-7
COS-7 = experiment: Inverse agonist activity at rat M3'(3C)-Xa receptor expressed in african green monkey COS7 cells assessed as reduction in basal inositol monophosphate accumulation at 10 uM; assay type: functional, cell-based
[7] = system: Muscarinic acetylcholine receptor M3 (Rattus norvegicus), P08483 [A91C,T549C]; experiment: Inhibition of disulfide bond cross-linking in rat M3'(3C)-Xa receptor A91C/T549C mutant expressed in african green monkey COS7 cells at 1 mM by Western blotting; assay type: cell-based; conditions: COS-7
[8] = system: Muscarinic acetylcholine receptor M3 (Rattus norvegicus), P08483 [F92C,F550C]; experiment: Inhibition of disulfide bond cross-linking in rat M3'(3C)-Xa receptor F92C/F550C mutant expressed in african green monkey COS7 cells at 1 mM by Western blotting; assay type: cell-based; conditions: COS-7
[9] = Agonist activity at rat M3'(3C)-Xa receptor expressed in african green monkey COS7 cells assessed as increase in myo-[3H]inositol hydrolysis; assay type: functional, cell-based; conditions: COS-7
[10] = Displacement of [3H]NMS from rat M3'(3C)-Xa receptor expressed in african green monkey COS7 cells; assay type: cell-based; conditions: cos-7

| SMILES | Emax [1] [%] | Emax [2] [%] | Activity [3] | Activity [4] | Activity [5] | Activity [6] | Activity (COS-7) | Activity [7] | Activity [8] | EC50 [9] [nM] | Ki [10] [µM] |
| --- | --- | --- | --- | --- | --- | --- | --- | --- | --- | --- | --- |
| C[N+]1(C)[C@@H]2C[C@@H](OC(=O)[C@H](CO)c3ccccc3)C[C@H]1[C@@H]1O[C@@H]12 | 244 | 192 | Active | Active | Active | Active | Active |  |  |  |  |
| C[N+](C)(C)CC#CCN1CCCC1=O |  |  |  |  |  |  |  | Active | Active |  |  |
| C[N+](C)(C)CCOC(N)=O [CARBACHOL] |  |  |  |  |  |  |  | Active | Active | 63 | 23.1 |
| CN1[C@@H]2CC[C@H]1C[C@@H](OC(=O)C(CO)c1ccccc1)C2 (stereo partly specified) |  |  | Active | Active |  |  | Active |  |  |  |  |
